Columns and labels:
Type in all cases: cell-based
U87MG = test: SRB cell viability/proliferation; conditions: Homo sapiens, U-87 MG
Description: (§1) and MCF10AT1 cells were cultured in Dulbecco's Modified Eagle's Medium/Ham's Nutrient Mixture F-12 (DME/F12) supplemented with 10% (volume/volume) FBS , 100 μg/ml streptom ycin and 100 units/ml penicillin, antim ycotic solution, 0.5 μg/ml hydrocortisone, 10 ng/ml human epiderm al growth factor (hEGF) and 5 μg/ml insulin, whereas MCF10CA1a cell line was cultured in DM EM supplemented with 10% FBS (volume/volume). KB-3- 1, parental human epidermoid carcinoma cell line and KB-C2, an isogenic MDR1- overexpressing drug-resistant cell line, were kindl y provided b y Dr. Amit K Tiwari, the Universit y of Toledo, OH.
(§2) Parental HEK293 and M RP1- overexpressing HEK293- MRP1 isogenic cel ls were kind gifts of Dr. Susan Cole (Queen’s Universit y, Kingston, Ontario, Canada). The pacl itaxel-resistant MDA-MB-231TaxR cell line was generated in house b y culturing MDA-MB-231 cells (purchased from ATCC and authen ticated ) in the gradual l y incr easi ng con centr ations of pacl itax el until the concentration reached to 100 nM. Cell line authentication was carried out by Genetica DNA Laboratories (Burlington, NC) using a short tandem repeat (STR) profiling method (March 2015; […]
(§3) Cell cycl e pro gr ession in the absence (sham) o r pr esence o f compound(s ) was determined with a Beckman Coulter Epics Elite FC 500 Flow C ytom eter as described previousl y (Romero

MDA-MB-468 = test: SRB cell viability/proliferation; conditions: Homo sapiens
Description: as §1, §2, §3

NCI-60 cancer cell lines = test: NCI-60 SRB screen, panel means; conditions: mean of panel
Source text: (§4) Supplementary Table S 3: Antitumor activity of CTR -17 and CTR -20, alone or in combination […]
(§5) a Tax: paclitaxel. b mg per kg of bod y wei ght. c unit is mm 3.
(§6) Supplementary Figure l egend
(§7) 10μ M of CTR-20 was used to examine the drug’s efficac y against the NC I-60 cancer cell li nes including: six leukemia cell lines, nine non- small cell lung cancer cell lines, seven color ect al cancer cell lines, six CNS cancer cell lines, nine melanoma cell lines, seven ovari an can cer cell lines, seven ren al can cer cell lines, two prostate cancer cell lines and six breast cancer cell lines. The scr eenin g was car r ied out b y the US National Cancer Institute (NC I) us i n g a sulforhodamine B (SRB) colorimetric assay. […]
(§8) out by the NC I using five different doses of CTR -20.

MRP1 = molecular target: T1, MRP1 (Homo sapiens, UniProt P33527); test: Calcein-AM retention assay, HEK293-MRP1 cells; conditions: 22 µmol/L, DMSO control 52%
T1 construct: expressed in transfected cells; host or cells: HEK293-MRP1 (gift of Dr. Susan Cole)
T1 sequence (P33527 whole entry): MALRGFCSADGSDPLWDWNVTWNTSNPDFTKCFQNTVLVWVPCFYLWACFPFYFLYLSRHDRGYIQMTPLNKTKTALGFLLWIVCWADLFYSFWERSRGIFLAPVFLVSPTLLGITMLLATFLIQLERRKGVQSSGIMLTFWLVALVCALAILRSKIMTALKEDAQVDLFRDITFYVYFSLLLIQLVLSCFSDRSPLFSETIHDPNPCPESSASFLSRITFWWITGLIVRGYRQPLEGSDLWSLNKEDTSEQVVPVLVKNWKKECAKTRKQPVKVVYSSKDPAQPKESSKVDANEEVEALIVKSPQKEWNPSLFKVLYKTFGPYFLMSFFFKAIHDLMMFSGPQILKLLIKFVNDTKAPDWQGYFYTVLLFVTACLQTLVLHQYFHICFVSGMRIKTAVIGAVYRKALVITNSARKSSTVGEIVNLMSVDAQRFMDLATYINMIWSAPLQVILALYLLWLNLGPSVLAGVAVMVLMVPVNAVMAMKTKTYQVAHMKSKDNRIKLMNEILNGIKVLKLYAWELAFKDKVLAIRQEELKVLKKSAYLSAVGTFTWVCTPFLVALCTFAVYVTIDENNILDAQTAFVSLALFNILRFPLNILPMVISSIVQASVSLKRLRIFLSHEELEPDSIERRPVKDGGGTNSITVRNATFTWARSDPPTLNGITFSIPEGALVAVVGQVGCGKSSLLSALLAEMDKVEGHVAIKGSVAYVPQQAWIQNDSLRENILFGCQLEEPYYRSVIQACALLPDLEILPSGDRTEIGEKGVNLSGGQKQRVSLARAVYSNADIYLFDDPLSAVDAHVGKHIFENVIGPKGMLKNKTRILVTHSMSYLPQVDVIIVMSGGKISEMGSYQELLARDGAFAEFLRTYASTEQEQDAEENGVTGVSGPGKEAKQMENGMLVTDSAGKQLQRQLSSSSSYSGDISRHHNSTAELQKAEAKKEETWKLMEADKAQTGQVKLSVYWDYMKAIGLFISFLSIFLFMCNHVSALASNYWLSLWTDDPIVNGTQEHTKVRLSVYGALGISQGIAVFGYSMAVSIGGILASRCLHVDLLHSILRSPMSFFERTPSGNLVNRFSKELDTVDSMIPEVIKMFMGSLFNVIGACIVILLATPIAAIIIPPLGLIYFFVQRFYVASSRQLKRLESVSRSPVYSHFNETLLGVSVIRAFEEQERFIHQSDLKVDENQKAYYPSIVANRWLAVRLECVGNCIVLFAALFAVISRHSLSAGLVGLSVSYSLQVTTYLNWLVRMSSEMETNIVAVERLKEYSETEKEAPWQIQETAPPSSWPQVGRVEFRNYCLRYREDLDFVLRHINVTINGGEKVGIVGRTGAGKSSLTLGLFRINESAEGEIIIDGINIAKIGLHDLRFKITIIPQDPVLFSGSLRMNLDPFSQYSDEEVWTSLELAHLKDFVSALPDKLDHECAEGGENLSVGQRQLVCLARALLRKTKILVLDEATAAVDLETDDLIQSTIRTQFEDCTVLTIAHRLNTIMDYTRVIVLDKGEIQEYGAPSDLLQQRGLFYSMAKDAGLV

SNB-75 = test: NCI-60 SRB screen
Source text: as §4, §5, §6, §7, §8

HCT-116 = test: NCI-60 SRB screen
Source text: as §4, §5, §6, §7, §8

MOLT-4 = test: NCI-60 SRB screen
Source text: as §4, §5, §6, §7, §8

HS 578T = test: NCI-60 SRB screen
Source text: as §4, §5, §6, §7, §8

COLO 205 = test: NCI-60 SRB screen; conditions: 1.00E-5 Molar
Source text: as §4, §5, §6, §7, §8

ACHN = test: NCI-60 SRB screen; conditions: 1.00E-5 Molar
Source text: as §4, §5, §6, §7, §8

[1] = Homo sapiens, read-out: LC50 (the source's name)

Compound: COc1ccc2[nH]c(=O)c(/C=C/C(=O)c3ccccc3OC)cc2c1 [CTR-20, (E)-6-Methoxy-3-(3-(2-methoxyphenyl)-3-oxoprop-1-enyl) quinolin-2(1H)-one]
- IC50 (U87MG): 1110 nM
- IC50 (MDA-MB-468): 120 nM
- Mean Growth Percent (NCI-60 cancer cell lines; 1.00E-5 Molar): 13.21%
- Log10GI50 _MID (NCI-60 cancer cell lines): -6.21 Molar
- Log10LC50 _MID (NCI-60 cancer cell lines): -4.58 Molar
- Log10TGI _MID (NCI-60 cancer cell lines): -5.29 Molar
- calcein-AM retained in the cells (MRP1): 72%
- Log10GI50 (SNB-75): -6.33 Molar
- Log10LC50 (SNB-75): -4.42 Molar
- Log10TGI (SNB-75): -4.85 Molar
- TGI (SNB-75): 1.42E-5 Molar
- Growth Percent (SNB-75; 1.00E-5 Molar): -11.48%
- GI50 (SNB-75; Homo sapiens): 470 nM
- CC50 (SNB-75; [1]): 37800 nM
- Percent Growth (SNB-75; Log10 Concentration -4.0): -100%
- Percent Growth (SNB-75; Log10 Concentration -5.0): 18%
- Percent Growth (SNB-75; Log10 Concentration -6.0): 34%
- Percent Growth (SNB-75; Log10 Concentration -7.0): 82%
- Percent Growth (SNB-75; Log10 Concentration -8.0): 86%
- Log10GI50 (HCT-116): -6.46 Molar
- Log10LC50 (HCT-116): -5.26 Molar
- Log10TGI (HCT-116): -5.83 Molar
- TGI (HCT-116): 1.48E-6 Molar
- Growth Percent (HCT-116; 1.00E-5 Molar): 16.04%
- GI50 (HCT-116; Homo sapiens): 348 nM
- CC50 (HCT-116; [1]): 5480 nM
- Percent Growth (HCT-116; Log10 Concentration -4.0): -96%
- Percent Growth (HCT-116; Log10 Concentration -5.0): -73%
- Percent Growth (HCT-116; Log10 Concentration -6.0): 15%
- Percent Growth (HCT-116; Log10 Concentration -7.0): 92%
- Percent Growth (HCT-116; Log10 Concentration -8.0): 94%
- Log10GI50 (MOLT-4): -6.38 Molar
- Log10LC50 (MOLT-4): > -4.00 Molar
- Log10TGI (MOLT-4): -4.57 Molar
- TGI (MOLT-4): 2.71E-5 Molar
- Growth Percent (MOLT-4; 1.00E-5 Molar): 10.88%
- GI50 (MOLT-4; Homo sapiens): 421 nM
- CC50 (MOLT-4; [1]): > 100000 nM
- Percent Growth (MOLT-4; Log10 Concentration -4.0): -12%
- Percent Growth (MOLT-4; Log10 Concentration -5.0): 9%
- Percent Growth (MOLT-4; Log10 Concentration -6.0): 21%
- Percent Growth (MOLT-4; Log10 Concentration -7.0): 98%
- Percent Growth (MOLT-4; Log10 Concentration -8.0): 97%
- Log10LC50 (HS 578T): > -4.00 Molar
- Log10TGI (HS 578T): -4.08 Molar
- TGI (HS 578T): 8.38E-5 Molar
- Growth Percent (HS 578T; 1.00E-5 Molar): 8.33%
- CC50 (HS 578T; [1]): > 100000 nM
- Percent Growth (HS 578T; Log10 Concentration -4.0): -8%
- Percent Growth (HS 578T; Log10 Concentration -5.0): 91%
- Percent Growth (HS 578T; Log10 Concentration -6.0): 37%
- Percent Growth (HS 578T; Log10 Concentration -7.0): 98%
- Percent Growth (HS 578T; Log10 Concentration -8.0): 96%
- Growth Percent (COLO 205): 20.45%
- Growth Percent (ACHN): 38.84%

Source: PMC5578999, “Novel quinolone chalcones targeting colchicine-binding pocket kill multidrug-resistant cancer cells by inhibiting tubulin activity and MRP1 function” (Scientific Reports, 2017)
